Where two headings read alike, the source gives them in different places.
Assays:
[1] = system: Mouse 3T3-L1 pre-adipocytes; assay: Adipogenesis inhibition, lipid accumulation by Oil red O staining in cultured 3T3L1; type: cell-based
Description: Stock was diluted 1000 times in DMEM to get 10 μg/ml final concentration and serially diluted. Insulin (Hi Media) was bought as a solution at a concentration of 20 mg/ml. This was diluted to 1 μg/ml in DMEM. IBMX (Sigma)—Stock of 5 mM was prepared in DMEM, and diluted 10 times to be used at a final concentration of 0.5 mM. Dexamethasone (Sigma)—A stock of 10 μM was prepared in DMEM and diluted 40 times to get a final concentration of 0.25 μM. Mouse 3T3-L1 pre-adipocytes were cultured in DMEM media containing 25 mM glucose, 10% heat-inactivated new born calf serum (NBCS) and antibiotics at 37° C. and 5% CO2. When the cells were 70-80% confluent, they were trypsinized, washed and seeded in 48 well plates at a density of 3×10^4 cells per well. […] After differentiation for two days, The media was replaced with DMEM containing insulin (1 μg/mL) and different concentrations of test ingredients on alternate days until the cells were processed after 3rd progression. Untreated cells grown in differentiation media and undifferentiated cells grown in NBCS media were taken as adipogenesis positive and negative controls for the experiment. Quantification of triglycerides accumulated in adipocytes was done by Oil red O staining.

[2] = system: high fat diet induced obesity in C57 mice; assay: High fat diet induced obesity in C57 mice; type: in vivo, C57/BL6 mice; details: high fat diet fed mice, 50 mg/kgbw; FIG. 6
Description: Animals-C57/BL6 mice, 6-8 weeks of age and 8 animals/Group (4 Male and 4 Female) were used for the study. […] The temperature and relative humidity was recorded once daily. Feed: […] Water was provided along with High Fat Diet to the animals throughout the acclimatization and experimental period. Water from water filter cum purifier was provided in animal feeding bottle with stainless steel sipper tubes. The design of the study groups is depicted in table 4. [table] Body weight of the animals was recorded in all the days of experimental period. At the end of the experimental period, the animals were sacrificed by cervical dislocation. Blood was collected and Serum was separated by centrifugation and used for the analysis of biochemical parameters. […] The following parameters were measured in the above groups: • Measurement of Body weight: Determination of Organ Weight13 Liver, Visceral adipose tissue (VAT) and subcutaneous adipose tissue (SAT) • Estimation of Cholesterol (Zak et al., (2009) A new method for the determination of serum cholesterol. J Clin Endocrinol Metab., 94(7), 2215-2220) • Estimation of Triglycerides (Foster L. B and Dunn R. T. (1973) Stable reagents for determination of serum triglycerides by a colorimetric Hantzsch condensation method. Clin Chem, 196, 338-340). • Estimation of HDL Cholesterol (Burstein et al., (1970). Determination of HDL cholesterol. […]

[3] = 3T3-L1, read-out: Adipogenesis inhibition
[4] = Table 2B, 1.5625 μg/ml, 3T3-L1, Oil red O, read-out: Adipogenesis inhibition
[5] = Table 2B, 3.125 μg/ml, 3T3-L1, Oil red O, read-out: Adipogenesis inhibition

COc1cc(/C=C/C(O)=C/C(=O)/C=C/c2ccc(O)cc2)ccc1O [DMC, demethoxycurcumin] showed an inhibition at 1.5625 µg/mL [1, 3] of 21% and an inhibition at 3.125 µg/mL [1, 3] of 19.4%.

For O=C(/C=C/c1ccc(O)cc1)CC(=O)/C=C/c1ccc(O)cc1 [BDMC, bisdemethoxycurcumin], the inhibition at 1.5625 µg/mL [1, 4] was 20.2%, the inhibition at 3.125 µg/mL [1, 5] was 16.2% and the “Adverse effect on weight of the liver / critical organs” value [2] was “does not induce any adverse effects”.

COc1cc(/C=C/C(=O)CC(=O)/C=C/c2ccc(O)c(OC)c2)ccc1O [Curcumin, curcumin] gave an inhibition at 1.5625 µg/mL [1, 4] of 11.6% and an inhibition at 3.125 µg/mL [1, 5] of 11.1%.
